Assay results taken from patent US6855507B2, “Method of screening for pharmaceuticals by detecting cross talk between intracellular signals and intranuclear receptors” (Chugai Seiyaku Kabushiki Kaisha, priority 1998, dated 2005).

Tested on: VDR and Smad3
Assay: GST-pull down analysis of VDR and Smad3 interaction (cell-free)
Format: binding
Conditions: FIG. 5
Experimental: GST fused Smad3 or VDR (full length peptide 1-424, partial peptides: amino acid sequence 115-424, 115-357, 115-300 and others, see FIG. 4) fused proteins (GST-Smad3 or GST-VDR) were expressed by using E.coli, and were captured on beads with glutatione-Sepharose bead (Pharmacia) to accomplish affinity purification. On the other hand, ^35S-methionine-labeled Smad3 and VDR were prepared in cell-free system by using reticulocyte lysate translation system (Promega). GST-Smad3 or GST-VDR fixed on beads described above was incubated with ^35S-methionine labeled VRD or Smad3. By using polyacrylamide gel electrophoresis, ^35S-methionine labeled VDR or Smad3 were analyzed.

With `C=C1/C(=C\C=C2/CCC[C@]3(C)[C@@H]([C@H](C)CCCC(C)(C)O)CC[C@@H]23)C[C@@H](O)C[C@@H]1O` [1,25(OH)2VD3] the “binding of full length VDR to Smad3 in the presence of ligand” value (1 nM) was “slightly bound” and the “ligand requirement of binding of VDR partial peptides 115-357 and 115-300 to Smad3” value was “did not require”.
